This note sets out measurements from ChEMBL document CHEMBL1129317, “Novel selective and partial agonists of 5-HT3 receptors. Part 1. Synthesis and biological evaluation of piperazinopyrrolothienopyrazines” (J Med Chem, 1996).

pIC50: −log10 of the molar value. Bounds are passed on as bounds.

Experiment [1] concerns the target T1, 5-hydroxytryptamine receptor 1A (Homo sapiens, UniProt P08908).
T1 sequence (P08908 whole entry): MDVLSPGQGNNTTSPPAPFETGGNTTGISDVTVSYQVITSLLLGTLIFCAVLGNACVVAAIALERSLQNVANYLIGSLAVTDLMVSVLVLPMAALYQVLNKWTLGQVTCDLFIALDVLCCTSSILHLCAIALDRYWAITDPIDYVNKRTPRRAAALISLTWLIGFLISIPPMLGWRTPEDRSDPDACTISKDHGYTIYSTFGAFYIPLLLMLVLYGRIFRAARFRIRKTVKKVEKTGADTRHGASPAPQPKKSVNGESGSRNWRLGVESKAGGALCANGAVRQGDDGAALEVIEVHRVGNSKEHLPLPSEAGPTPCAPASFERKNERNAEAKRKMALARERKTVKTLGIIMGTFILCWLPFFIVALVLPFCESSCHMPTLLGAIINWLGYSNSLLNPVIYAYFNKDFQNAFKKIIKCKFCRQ
Description: Binding affinity for 5-hydroxytryptamine 1A receptor.

The target in experiment [2] is 5-hydroxytryptamine receptor 1D (Sus scrofa, UniProt P79400). As to the kind of experiment: Binding affinity for 5-hydroxytryptamine 1D receptor.
For experiment [3], the target named is T2, Serotonin 3 (5-HT3) receptor (Rattus norvegicus, UniProt P35563+Q9JJ16).
T2 sequence (P35563 whole entry): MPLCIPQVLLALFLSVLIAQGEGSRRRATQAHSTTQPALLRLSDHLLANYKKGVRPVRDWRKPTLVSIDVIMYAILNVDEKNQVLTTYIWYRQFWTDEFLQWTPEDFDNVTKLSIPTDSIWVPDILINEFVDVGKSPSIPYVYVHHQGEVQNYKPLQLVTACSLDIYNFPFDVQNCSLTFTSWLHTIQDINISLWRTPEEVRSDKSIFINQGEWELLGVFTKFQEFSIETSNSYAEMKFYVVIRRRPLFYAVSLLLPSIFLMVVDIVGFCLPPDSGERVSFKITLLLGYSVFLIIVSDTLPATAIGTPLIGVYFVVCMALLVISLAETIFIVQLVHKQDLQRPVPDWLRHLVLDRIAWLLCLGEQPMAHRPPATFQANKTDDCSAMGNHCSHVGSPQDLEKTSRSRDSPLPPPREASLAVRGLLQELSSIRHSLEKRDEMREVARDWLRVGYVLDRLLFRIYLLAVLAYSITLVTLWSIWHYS
T2 sequence (Q9JJ16 whole entry): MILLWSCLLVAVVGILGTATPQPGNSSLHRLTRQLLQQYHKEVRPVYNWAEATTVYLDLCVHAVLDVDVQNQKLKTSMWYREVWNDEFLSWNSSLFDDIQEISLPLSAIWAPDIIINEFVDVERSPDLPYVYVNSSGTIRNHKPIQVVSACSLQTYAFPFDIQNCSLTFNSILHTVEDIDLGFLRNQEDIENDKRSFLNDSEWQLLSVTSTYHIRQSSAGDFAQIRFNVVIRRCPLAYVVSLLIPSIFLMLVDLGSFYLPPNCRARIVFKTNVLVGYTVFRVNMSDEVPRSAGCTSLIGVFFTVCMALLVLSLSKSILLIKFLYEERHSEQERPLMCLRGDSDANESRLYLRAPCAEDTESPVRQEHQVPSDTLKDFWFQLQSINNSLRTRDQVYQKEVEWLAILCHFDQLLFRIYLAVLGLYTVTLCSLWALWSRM
Description: Binding affinity towards 5-hydroxytryptamine 3 receptor. The format is protein-complex assay.

For experiment [4], the target named is 5-hydroxytryptamine receptor 2A (Bos taurus, UniProt Q75Z89). Description: Binding affinity towards 5-hydroxytryptamine 2A receptor.
For experiment [5], the target named is T3, 5-hydroxytryptamine receptor 2C (Homo sapiens, UniProt P28335).
T3 sequence (P28335 whole entry): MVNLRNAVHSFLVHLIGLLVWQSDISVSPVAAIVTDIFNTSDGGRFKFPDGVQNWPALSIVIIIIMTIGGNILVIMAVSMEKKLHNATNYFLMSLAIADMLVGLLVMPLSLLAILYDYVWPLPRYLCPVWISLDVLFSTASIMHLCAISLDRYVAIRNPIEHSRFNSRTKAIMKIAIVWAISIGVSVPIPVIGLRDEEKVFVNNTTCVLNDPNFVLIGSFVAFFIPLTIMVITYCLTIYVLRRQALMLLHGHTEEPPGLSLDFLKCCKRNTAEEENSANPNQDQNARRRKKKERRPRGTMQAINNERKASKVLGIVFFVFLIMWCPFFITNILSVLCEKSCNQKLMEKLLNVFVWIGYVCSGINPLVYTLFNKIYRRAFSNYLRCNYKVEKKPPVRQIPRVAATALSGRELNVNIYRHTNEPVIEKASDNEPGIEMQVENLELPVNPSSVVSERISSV
Description: Binding affinity towards 5-hydroxytryptamine 2C receptor.

Experiment [6] has as its target 5-hydroxytryptamine receptor 1B (Rattus norvegicus, UniProt P28564). Description: Binding affinity for 5-hydroxytryptamine 1B receptor.

Chain of 5-hydroxytryptamine receptor 1B (P28564 whole entry): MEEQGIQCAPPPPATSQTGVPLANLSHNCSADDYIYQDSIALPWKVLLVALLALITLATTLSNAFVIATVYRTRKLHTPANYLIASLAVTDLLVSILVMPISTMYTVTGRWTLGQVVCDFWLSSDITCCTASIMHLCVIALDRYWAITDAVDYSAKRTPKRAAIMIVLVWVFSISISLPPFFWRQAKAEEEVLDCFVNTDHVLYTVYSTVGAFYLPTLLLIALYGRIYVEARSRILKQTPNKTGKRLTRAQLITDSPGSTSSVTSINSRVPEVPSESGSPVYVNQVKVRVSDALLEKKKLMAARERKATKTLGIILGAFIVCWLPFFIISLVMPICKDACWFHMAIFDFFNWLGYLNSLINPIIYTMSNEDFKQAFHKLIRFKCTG
Chain of 5-hydroxytryptamine receptor 1D (P79400 whole entry): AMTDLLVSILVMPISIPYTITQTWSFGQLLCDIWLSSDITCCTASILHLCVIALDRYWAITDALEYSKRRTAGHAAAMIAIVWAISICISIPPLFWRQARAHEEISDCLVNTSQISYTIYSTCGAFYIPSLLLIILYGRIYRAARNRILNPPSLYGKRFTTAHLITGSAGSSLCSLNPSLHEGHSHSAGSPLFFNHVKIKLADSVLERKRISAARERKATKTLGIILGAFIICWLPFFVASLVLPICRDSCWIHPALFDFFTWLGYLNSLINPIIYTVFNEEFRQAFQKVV
Chain of 5-hydroxytryptamine receptor 2A (Q75Z89 whole entry): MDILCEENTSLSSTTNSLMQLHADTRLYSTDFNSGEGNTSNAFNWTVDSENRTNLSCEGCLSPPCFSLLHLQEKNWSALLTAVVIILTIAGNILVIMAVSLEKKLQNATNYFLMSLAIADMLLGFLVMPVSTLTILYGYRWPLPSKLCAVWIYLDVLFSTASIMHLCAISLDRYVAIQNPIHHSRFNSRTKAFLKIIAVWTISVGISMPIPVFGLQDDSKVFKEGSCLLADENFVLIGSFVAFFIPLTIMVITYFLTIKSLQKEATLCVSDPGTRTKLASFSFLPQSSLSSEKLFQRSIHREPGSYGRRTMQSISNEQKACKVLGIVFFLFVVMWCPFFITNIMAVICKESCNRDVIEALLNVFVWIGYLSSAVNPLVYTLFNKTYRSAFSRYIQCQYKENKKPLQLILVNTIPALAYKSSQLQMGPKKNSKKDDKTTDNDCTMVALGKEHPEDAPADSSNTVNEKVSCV

In the case of `CN1CCN(c2nc3sccc3n3cccc23)CC1`, the pIC50 is 7.28 in experiment [1], 6.04 in experiment [2], 6.62 in experiment [3] and 5.63 in experiment [4].
Take `c1cc2c(N3CCN(Cc4ccc5c(c4)OCO5)CC3)nc3ccsc3n2c1`: the pIC50 in experiment [1] was 6.58; in experiment [2] it was 4.44; in experiment [5] it was 6.34; in experiment [3], 8.59; in experiment [6], 5.51; in experiment [4], 4.96.
Consider `Clc1ccc(CN2CCN(c3nc4ccsc4n4cccc34)CC2)c(Cl)c1`, for which the pIC50 in experiment [1] is 6.18; in experiment [2] it was 5.51; in experiment [5], 6.07; in experiment [3], 7.78; in experiment [6] it was 5.33; in experiment [4], 5.13.
Take `CN1CCN(c2nc3ccsc3n3cccc23)CC1`: the pIC50 in experiment [1] was 6.93; in experiment [2], 6.40; in experiment [5], 6.62; in experiment [3], 6.09; in experiment [6], 4.95; in experiment [4], 5.89.
Regarding `Clc1ccc(N2CCN(c3nc4ccsc4n4cccc34)CC2)cc1`, the pIC50 in experiment [1] is less than 4.00; in experiment [2] it was less than 4.00; in experiment [5], 3.99; in experiment [3] it was 3.61; in experiment [6], 3.52; in experiment [4], 3.43.
For the compound `CN1CCN(c2nc3cc(C(F)(F)F)ccc3n3cccc23)CC1`, the pIC50 in experiment [1] was 7.33; in experiment [2], 6.91; in experiment [3], 5.88; in experiment [6], 6.47; in experiment [4] it was 4.73.
As for `Clc1ccc(CN2CCN(c3nc4sccc4n4cccc34)CC2)cc1Cl`, the pIC50 in experiment [1] is 4.99; in experiment [2], 3.59; in experiment [5] it was 5.06; in experiment [3] it was 5.93; in experiment [6], 4.47; in experiment [4], 3.72.
Turning to `C=CCN1CCN(c2nc3ccsc3n3cccc23)CC1`, the pIC50 was 6.92 in experiment [1]; 6.42 in experiment [2]; 6.77 in experiment [5]; 8.58 in experiment [3]; 6.24 in experiment [6]; 6.07 in experiment [4].
As to `c1cc2c(N3CCN(CC4CC4)CC3)nc3ccsc3n2c1`, the pIC50 was 7.21 in experiment [1]; 5.59 in experiment [2]; 6.45 in experiment [5]; 7.22 in experiment [3]; 4.99 in experiment [6]; 6.03 in experiment [4].
Consider `CCOC(=O)CN1CCN(c2nc3ccsc3n3cccc23)CC1`, for which the pIC50 was 6.59 in experiment [1]; 4.00 in experiment [2]; 4.21 in experiment [5]; 5.39 in experiment [3]; 6.17 in experiment [6]; 4.15 in experiment [4].
Take `Fc1ccc(CN2CCN(c3nc4ccsc4n4cccc34)CC2)cc1`: the pIC50 was 6.46 in experiment [1]; 3.86 in experiment [2]; 5.13 in experiment [5]; 7.67 in experiment [3]; 4.84 in experiment [6]; 4.65 in experiment [4].
Regarding `CN1CCN(c2nc3sc(-c4ccccc4)cc3n3cccc23)CC1`, the pIC50 in experiment [1] was 4.81; in experiment [2] it was 4.22; in experiment [5] it was 5.66; in experiment [3], 4.67; in experiment [6], less than 4.00; in experiment [4], 4.86.
As to `FC(F)(F)c1ccccc1CCN1CCN(c2nc3ccsc3n3cccc23)CC1`, the pIC50 was 7.14 in experiment [1]; 3.70 in experiment [2]; 5.97 in experiment [5]; 3.57 in experiment [3]; 4.73 in experiment [6]; 5.29 in experiment [4].
With `O=C(c1ccc(F)cc1)N1CCN(c2nc3ccsc3n3cccc23)CC1`, the pIC50 in experiment [1] was 3.99; in experiment [2], 3.89; in experiment [5], less than 4.00; in experiment [3], 2.98; in experiment [6], 3.95; in experiment [4], 3.82.
Turning to `c1cc2c(N3CCN(Cc4ccc5c(c4)OCO5)CC3)nc3sccc3n2c1`, the pIC50 in experiment [2] is 4.70; in experiment [5], 5.59; in experiment [3], 8.99; in experiment [6] it was 5.15; in experiment [4], 4.61.
Turning to `c1ccc2nc(N3CCNCC3)ccc2c1` [QUIPAZINE], the pIC50 was 5.43 in experiment [2], 7.21 in experiment [5], 5.15 in experiment [6] and 5.46 in experiment [4].
Consider `Clc1ccc(C(c2ccccc2)N2CCN(c3nc4ccsc4n4cccc34)CC2)cc1` (stereo not given), for which the pIC50 in experiment [1] is 3.69; in experiment [2], less than 4.00; in experiment [5], 3.55; in experiment [3], 5.86; in experiment [6] it was less than 4.00; in experiment [4], less than 4.00.
With `c1ccc(C2CCN(c3nc4ccsc4n4cccc34)CC2)cc1`, the pIC50 in experiment [1], in experiment [2], in experiment [5], in experiment [3], in experiment [6] and in experiment [4] was less than 4.00 in each case.
Turning to `CN1CCN(c2nc3cc(-c4ccccc4)sc3n3cccc23)CC1`, the pIC50 was 5.31 in experiment [1]; 4.06 in experiment [2]; 4.93 in experiment [5]; 4.72 in experiment [3]; 4.83 in experiment [6]; 5.13 in experiment [4].
On to `c1ccc(-c2cc3nc(N4CCNCC4)c4cccn4c3s2)cc1`, for which the pIC50 was 4.45 in experiment [2]; 5.00 in experiment [5]; 5.61 in experiment [3]; less than 4.00 in experiment [6]; 3.52 in experiment [4].
With `CCCN1CCN(c2nc3ccsc3n3cccc23)CC1`, the pIC50 in experiment [1] was 7.03; in experiment [2], 6.87; in experiment [5] it was 6.46; in experiment [3], 7.22; in experiment [6], 5.96; in experiment [4] it was 5.97.
Turning to `Clc1ccc(CN2CCN(c3nc4ccsc4n4cccc34)CC2)cc1Cl`, the pIC50 in experiment [1] is 5.87; in experiment [2], 4.35; in experiment [5], 5.41; in experiment [3] it was 5.64; in experiment [6], 5.37; in experiment [4], 4.76.
Consider `c1ccc(N2CCN(c3nc4ccsc4n4cccc34)CC2)cc1`, for which the pIC50 in experiment [1], in experiment [2], in experiment [5], in experiment [3] and in experiment [4] was less than 4.00 throughout.
Consider `CCOC(=O)N1CCN(c2nc3ccsc3n3cccc23)CC1`, for which the pIC50 in experiment [1] is 4.47; in experiment [2], 3.29; in experiment [5] it was less than 4.00; in experiment [3], 3.69; in experiment [4] it was 3.91.
For `C1=CCN(c2nc3ccsc3n3cccc23)CC1` the same measures were 3.34, less than 4.00, less than 4.00, less than 4.00 and 3.95.
With `FC(F)(F)c1cccc(N2CCN(c3nc4ccsc4n4cccc34)CC2)c1`, the pIC50 is 6.54 in experiment [1]; 5.90 in experiment [2]; 6.81 in experiment [5]; 5.80 in experiment [3]; 5.75 in experiment [4].
